Data taken from the supplement of paper PMC11061612.

What was measured:
Assay in all cases: Bliss excess, mean over the matrix (fraction); higher = more synergy
[1] = system: KARPAS-1106P (B-Cell Non-Hodgkin's Lymphoma)
Summary of the method: (§1)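 Cell lines grown in DMEM/F12 or RPMI with 10% FBS were plated in 1536-well plates and held 24 hours at 37°C, 5% CO2 before 72 hours of exposure to two-drug dose matrices, with DMSO typically at 0.2%. CellTiter-Glo 2.0 luminescence gave viability, which was converted to inhibition. Vehicle wells were set to 0 and blank wells to 1. Combination Emax is the second-highest inhibition in the matrix, and Bliss excess is the observed combination effect minus the expected EA + EB − EA·EB, where EA and EB are the single-agent effects.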

[2] = system: NCI-H1299 (Non-Small Cell Lung Carcinoma)
Summary of the method: as §1

[3] = system: KARPAS-620 (Plasma Cell Myeloma)
Summary of the method: as §1

IGR-1 (Melanoma) = system: IGR-1 (Melanoma)
Summary of the method: as §1

[4] = system: MFH-ino (Other Solid Carcinomas)
Summary of the method: as §1

[5] = system: C3A (Hepatocellular Carcinoma)
Summary of the method: as §1

[6] = system: JiyoyeP-2003 (Burkitt's Lymphoma)
Summary of the method: as §1

[7] = system: COR-L95 (Small Cell Lung Carcinoma)
Summary of the method: as §1

[8] = system: OCI-AML2 (Acute Myeloid Leukemia)
Summary of the method: as §1

[9] = system: LS-513 (Colorectal Carcinoma)
Summary of the method: as §1

[10] = system: SW1990 (Pancreatic Carcinoma)
Summary of the method: as §1

[11] = system: KATOIII (Gastric Carcinoma)
Summary of the method: as §1

[12] = system: NCI-H1694 (Small Cell Lung Carcinoma)
Summary of the method: as §1

[13] = system: NCI-H1781 (Lung Adenocarcinoma)
Summary of the method: as §1

NCI-H2595 (Mesothelioma) = system: NCI-H2595 (Mesothelioma)
Summary of the method: as §1

[14] = system: SW756 (Cervical Carcinoma)
Summary of the method: as §1

[15] = system: NCI-H1793 (Lung Adenocarcinoma)
Summary of the method: as §1

[16] = system: SW1783 (Low Grade Glioma)
Summary of the method: as §1

NCI-H2369 (Mesothelioma) = system: NCI-H2369 (Mesothelioma)
Summary of the method: as §1

[17] = system: TGBC24TKB (Biliary Tract Carcinoma)
Summary of the method: as §1

| SMILES | Bliss excess [1] | Bliss excess [2] | Bliss excess [3] | Bliss excess (IGR-1 (Melanoma)) | Bliss excess [4] | Bliss excess [5] | Bliss excess [6] | Bliss excess [7] | Bliss excess [8] | Bliss excess [9] | Bliss excess [10] | Bliss excess [11] | Bliss excess [12] | Bliss excess [13] | Bliss excess (NCI-H2595 (Mesothelioma)) | Bliss excess [14] | Bliss excess [15] | Bliss excess [16] | Bliss excess (NCI-H2369 (Mesothelioma)) | Bliss excess [17] |
| --- | --- | --- | --- | --- | --- | --- | --- | --- | --- | --- | --- | --- | --- | --- | --- | --- | --- | --- | --- | --- |
| CC1(C)CCC(CN2CCN(c3ccc(C(=O)NS(=O)(=O)c4ccc(NCC5CCOCC5)c([N+](=O)[O-])c4)c(Oc4cnc5[nH]ccc5c4)c3)CC2)=C(c2ccc(Cl)cc2)C1 [Venetoclax] + Cn1cnc2c(F)c(Nc3ccc(Br)cc3Cl)c(C(=O)NOCCO)cc21 [Selumetinib] (first compound max 1 µM, 7x7, partner max 3 µM) | -0.0009 | -0.0424 | 0.16 | -0.0405 | -0.0288 | -0.017 | 0.0014 | -0.0265 | 0.014 | -0.0159 | -0.0656 | -0.0235 | -0.0313 | -0.0437 | -0.047 | -0.0537 | -0.0096 | -0.0595 | -0.0308 | -0.0103 |
| COc1nnc2ccc(N3CCC(c4ccc(OCCN5CCN(C)C(=O)[C@H]5C)cc4)CC3)nn12 [AZD5153] + Cc1c2c(nn1C)CSCc1cc(n(C)n1)CSc1cc(c3ccccc3c1)OCCCc1c(C(=O)O)n(C)c3c-2c(Cl)ccc13 [AZD5991] (first compound max 1 µM, 7x7, partner max 1 µM) | 0.0005 | -0.0313 | -0.0115 | 0.0094 | -0.0333 | -0.0262 | -0.0218 | -0.0167 | -0.0185 | -0.0549 | -0.0477 | -0.0765 | 0.0992 | 0.0028 | 0.015 | -0.0238 | -0.0484 | -0.0024 | -0.0499 | 0.0447 |
| CC1(C)CCC(CN2CCN(c3ccc(C(=O)NS(=O)(=O)c4ccc(NCC5CCOCC5)c([N+](=O)[O-])c4)c(Oc4cnc5[nH]ccc5c4)c3)CC2)=C(c2ccc(Cl)cc2)C1 [Venetoclax] + COc1cc(Nc2ncc3c(n2)-c2ccc(Cl)cc2C(c2c(F)cccc2OC)=NC3)ccc1C(=O)O [Alisertib] (first compound max 1 µM, 7x7, partner max 10 µM) | 0.103 | 0.0391 | 0.284 | 0.0759 | -0.0729 | -0.0617 | -0.0161 | 0.134 | 0.0826 | -0.0655 | -0.074 | -0.0587 | 0.256 | -0.0303 | -0.0543 | -0.0426 | -0.0577 | -0.0178 | -0.0739 | 0.0487 |
| CC(=O)c1c(C)c2cnc(Nc3ccc(N4CCNCC4)cn3)nc2n(C2CCCC2)c1=O [Palbociclib] + CC1(C)CCC(CN2CCN(c3ccc(C(=O)NS(=O)(=O)c4ccc(NCC5CCOCC5)c([N+](=O)[O-])c4)c(Oc4cnc5[nH]ccc5c4)c3)CC2)=C(c2ccc(Cl)cc2)C1 [Venetoclax] (first compound max 10 µM, 7x7, partner max 1 µM) | -0.0424 | 0.0231 | 0.0056 | -0.0267 | -0.0576 | 0.0437 | 0.0975 | -0.0581 | 0.0188 | 0.0202 | -0.0239 | -0.0606 | 0 | -0.045 | -0.0557 | -0.062 | -0.0136 | -0.0484 | -0.0543 | -0.0121 |
| Cc1c2c(nn1C)CSCc1cc(n(C)n1)CSc1cc(c3ccccc3c1)OCCCc1c(C(=O)O)n(C)c3c-2c(Cl)ccc13 [AZD5991] + Cn1cnc2c(F)c(Nc3ccc(Br)cc3Cl)c(C(=O)NOCCO)cc21 [Selumetinib] (first compound max 1 µM, 7x7, partner max 3 µM) | 0.0497 | -0.0039 | 0.0919 | 0.0239 | -0.0311 | -0.0476 | 0.0039 | -0.039 | 0.0107 | -0.0242 | -0.0222 | -0.0085 | -0.0048 | -0.0165 | 0.0101 | -0.0058 | 0.0133 | -0.0782 | 0.0081 | 0.0488 |
| Cc1nc(Nc2ncc(C(=O)Nc3c(C)cccc3Cl)s2)cc(N2CCN(CCO)CC2)n1 [Dasatinib] + CC(=O)Nc1cccc(-n2c(=O)n(C3CC3)c(=O)c3c(Nc4ccc(I)cc4F)n(C)c(=O)c(C)c32)c1 [Trametinib] (first compound max 2 µM, 7x7, partner max 1 µM) | 0.122 | 0.035 | 0.0632 | -0.0448 | -0.0838 | -0.0059 | 0.193 | -0.0318 | 0.0363 | 0.0777 | 0.0235 | -0.0164 | -0.0311 | -0.0355 | -0.0413 | -0.0659 | -0.0406 | -0.0712 | -0.0535 | 0.106 |
| COc1cccc(OCCCN)c1-c1cc(Nc2cnc(C#N)cn2)n[nH]1 [Prexasertib] + O=C(c1cc(Cc2n[nH]c(=O)c3ccccc23)ccc1F)N1CCN(C(=O)C2CC2)CC1 [Olaparib] (first compound max 1 µM, 7x7, partner max 10 µM) | -0.0936 | -0.0694 | -0.046 | 0.0102 | -0.0326 | -0.0461 | -0.0421 | -0.121 | -0.0242 | -0.0666 | -0.0617 | -0.149 | -0.0596 | -0.0036 | -0.0053 | 0.0038 | -0.0106 | -0.0344 | -0.0284 | -0.0191 |
| COc1cccc(OCCCN)c1-c1cc(Nc2cnc(C#N)cn2)n[nH]1 [Prexasertib] + C=CCn1c(=O)c2cnc(Nc3ccc(N4CCN(C)CC4)cc3)nc2n1-c1cccc(C(C)(C)O)n1 [AZD1775] (first compound max 1 µM, partner max 1 µM) | -0.0047 | -0.0148 | 0.0927 | 0.0284 | 0.039 | 0.0463 | 0.0839 | -0.0187 | 0.0655 | 0.0763 | -0.0061 | -0.0076 | 0.13 | 0.0258 | 0.0383 | 0.0163 | -0.0045 | -0.0053 | -0.0074 | 0.0429 |
| NC1(C(=O)N[C@@H](CCO)c2ccc(Cl)cc2)CCN(c2ncnc3[nH]ccc23)CC1 [Capivasertib] + COc1nnc2ccc(N3CCC(c4ccc(OCCN5CCN(C)C(=O)[C@H]5C)cc4)CC3)nn12 [AZD5153] (first compound max 10 µM, 7x7, partner max 1 µM) | 0.0728 | 0.0174 | -0.0154 | -0.0325 | 0.0006 | 0.0515 | -0.0714 | -0.0272 | 0.0068 | -0.0246 | -0.0086 | -0.0386 | 0.0007 | 0.0513 | -0.0072 | 0.0197 | 0.0278 | 0.0324 | 0.004 | 0.0597 |
| C=CCn1c(=O)c2cnc(Nc3ccc(N4CCN(C)CC4)cc3)nc2n1-c1cccc(C(C)(C)O)n1 [AZD1775] + C[C@@H]1COCCN1C2=NC(=NC(=C2)C3(CC3)[S@](=N)(=O)C)C4=C5C=CNC5=NC=C4 [AZD6738] (first compound max 1 µM, partner max 10 µM) | 0.0072 | -0.0268 | 0.0335 | 0.0632 | -0.0909 | -0.0104 | 0.046 | -0.101 | 0.0349 | -0.0242 | -0.0352 | -0.0139 | 0.0818 | -0.0334 | -0.0206 | -0.0278 | -0.0289 | -0.0432 | -0.0395 | -0.0018 |
| COc1cccc(OCCCN)c1-c1cc(Nc2cnc(C#N)cn2)n[nH]1 [Prexasertib] + Cc1cc2ncnn2cc1Nc1ncc2c(n1)n(C1CCOCC1)c(=O)n2C [AZD7648] (first compound max 1 µM, 7x7, partner max 10 µM) | -0.0595 | -0.0577 | 0.0083 | 0.0116 | -0.0301 | -0.0264 | 0.017 | -0.102 | -0.0211 | -0.0509 | -0.0317 | 0.0048 | -0.0259 | 0.0024 | -0.0172 | 0.0098 | 0.0257 | -0.0281 | -0.0252 | -0.0412 |
| Cc1c2c(nn1C)CSCc1cc(n(C)n1)CSc1cc(c3ccccc3c1)OCCCc1c(C(=O)O)n(C)c3c-2c(Cl)ccc13 [AZD5991] + CCN(CCO)CCCOc1ccc2c(Nc3cc(CC(=O)Nc4cccc(F)c4)[nH]n3)ncnc2c1 [AZD2811] (first compound max 1 µM, 7x7, partner max 1 µM) | 0.0744 | -0.0012 | 0.066 | 0.0316 | 0.0053 | 0.0494 | 0.0917 | 0.0028 | 0.126 | 0.0137 | 0.0159 | -0.0687 | 0.0939 | -0.0155 | 0.0141 | 0.0141 | -0.0255 | -0.0135 | -0.0156 | 0.0122 |
| COc1cccc(OCCCN)c1-c1cc(Nc2cnc(C#N)cn2)n[nH]1 [Prexasertib] + CCc1c2c(nc3ccc(O)cc13)-c1cc3c(c(=O)n1C2)COC(=O)[C@]3(O)CC [SN-38] (first compound max 1 µM, 7x7, partner max 0.3 µM) | -0.124 | -0.0161 | 0.0396 | 0.0316 | -0.0321 | -0.112 | 0.0073 | -0.121 | -0.0094 | -0.0691 | -0.0551 | -0.0168 | 0.0037 | -0.0105 | 0.0211 | -0.0542 | -0.0209 | -0.0739 | 0.0148 | 0.0191 |
| CN(CCO)CC[C@H](CSc1ccccc1)Nc1ccc(S(=O)(=O)NC(=O)c2ccc(N3CCC([C@@H](O)c4ccccc4-c4ccc(Cl)cc4)CC3)cc2)cc1S(=O)(=O)C(F)(F)F [AZD4320] + C1CN(CCC1(C(=O)N[C@@H](CCO)C2=CC=C(C=C2)Cl)N)C3=NC=NC4=C3C=CN4 [Capivasertib] (first compound max 1 µM, 7x7, partner max 3 µM) | -0.0259 | -0.029 | 0.0032 | -0.0557 | -0.0527 | -0.0904 | 0.0157 | -0.0203 | -0.0333 | -0.0728 | -0.049 | -0.0385 | 0.0202 | -0.0313 | -0.0458 | -0.0506 | -0.0106 | -0.119 | 0.0332 | 0.0015 |
